Experimental data reported in US6476056B2, “Heterocycle substituted aryloxyaniline derivatives and their use as MDR ligands” (Taisho Pharmaceutical Co., Ltd., priority 1997, dated 2002).
Structures can show the parent of a compound that is named as a salt.

These compounds were tested against T1, MDR (Rattus norvegicus, UniProt P16257) (assay: MDR receptor binding assay ([3H]PK11195 displacement)). Conditions: 50% inhibition of [3H]PK11195 (2 nM) binding; crude mitochondria fraction from rat cerebral cortex; 4° C., 90 minutes.
T1 construct: Crude mitochondria fractions prepared from rat cerebral cortex were used as a receptor sample; from tissue; host or cells: rat cerebral cortex, crude mitochondria fraction
Experimental: Experiment [MDR Receptor Binding Assay]
Crude mitochondria fractions prepared from rat cerebral cortex were used as a receptor sample, and [^3H]PK11195 was used as a [^3H]-labeled ligand.
A binding assay using the [^3H]-labeled ligand was carried out according to the following method as described in Journal of Pharmacology and Experimental Therapeutics, 262, 971(1992).
Preparation of Receptor Sample: Rat cerebral cortex was homogenized using a Teflon-coated homogenizer in a 10 mM HEPES buffer (pH 7.4) containing 0.32 M sucrose in ten volumes of the wet weight. The homogenate was centrifuged at 900×g for 10 minutes, and the resulting supernatant was centrifuged at 9,000×g for 10 minutes. The precipitate was suspended in a HEPES buffer to give a protein concentration of 1 mg/ml, and centrifuged at 12,000×g for 10 minutes. The resulting precipitate was suspended in a 50 mM HEPES buffer (pH 7.4) to give a crude mitochondria fraction.
MDR Binding Assay: Mitochondria sample (1.0 mg protein/ml), [^3H]PK11195 (2 nM) and the test drug were reacted at 4° C. for 90 minutes. After completion of the reaction, the reaction mixture was filtered with suction through a glass filter (GF/B) treated with 0.3% polyethyleneimine, and the radioactivity on the filter was measured by a liquid scintillation spectrometer.
The binding at the reaction in the presence of 10 μM PK11195 was defined as non-specific binding of [3H]PK11195, and the difference between total binding and non-specific binding was defined as specific binding.
`COc1cccc(CN(C(C)=O)c2ccccc2Oc2ccccc2)c1` [Compound 001] was tested, and the IC50 was 1.38 nM.
`COc1ccc(CN(C(C)=O)c2ccccc2Oc2ccccc2)cc1` [Compound 002] showed an IC50 of 0.658 nM.
Compound `CCOc1ccccc1CN(C(C)=O)c1ccccc1Oc1ccccc1` [Compound 003] has an IC50 of 0.123 nM.
In the case of `CCOc1ccccc1CN(C(C)=O)c1ccc(Cl)cc1Oc1ccccc1` [Compound 004], the IC50 is reported as 0.791 nM.
`CCCOc1ccccc1CN(C(C)=O)c1ccccc1Oc1ccccc1` [Compound 005] was tested, and the IC50 was 0.118 nM.
For `CCCOc1ccccc1CN(C(C)=O)c1ccc(Cl)cc1Oc1ccccc1` [Compound 006], the IC50 was 0.677 nM.
With `CC(=O)N(Cc1ccccc1OC(C)C)c1ccccc1Oc1ccccc1` [Compound 007, N-Acetyl-N-(2-isopropoxybenzyl)-2-phenoxyaniline] the IC50 was 0.0977 nM.
`CC(=O)N(Cc1ccccc1OC(C)C)c1ccc(Cl)cc1Oc1ccccc1` [Compound 008] was tested, and the IC50 was 0.87 nM.
With `CC(=O)N(Cc1ccccc1OCC(C)C)c1ccccc1Oc1ccccc1` [Compound 009] the IC50 was 0.112 nM.
For `CCCCCOc1ccccc1CN(C(C)=O)c1ccccc1Oc1ccccc1` [Compound 010], the IC50 was 0.149 nM.
`CC(=O)N(Cc1ccccc1OCCC(C)C)c1ccccc1Oc1ccccc1` [Compound 011] was tested, and the IC50 was 0.163 nM.
`COc1ccccc1CCN(C(C)=O)c1ccccc1Oc1ccccc1` [Compound 012, N-Acetyl-N-[2-(2-methoxyphenyl)ethyl]-2-phenoxyaniline] was tested, and the IC50 was 0.453 nM.
`COc1ccccc1N(C(C)=O)c1ccccc1Oc1ccccc1` [Compound 013, N-Acetyl-N-(2-methoxyphenyl)-2-phenoxyaniline] gave an IC50 of 9.77 nM.
`COc1ccccc1C(C)N(C(C)=O)c1ccccc1Oc1ccccc1` (stereo not shown) [Compound 014] showed an IC50 of 2.21 nM.
`COc1cccc(CN(C(C)=O)c2ccccc2Oc2ccccc2)c1OC` [Compound 015] showed an IC50 of 0.285 nM.
With `COc1ccc(CN(C(C)=O)c2ccccc2Oc2ccccc2)c(OC)c1` [Compound 016, N-Acetyl-N-(2,4-dimethoxybenzyl)-2-phenoxyaniline] the IC50 was 0.722 nM.
`COc1ccc(OC)c(CN(C(C)=O)c2ccccc2Oc2ccccc2)c1` [Compound 017] showed an IC50 of 0.085 nM.
For `COc1ccc(OC)c(CN(C(C)=O)c2cc(C)ccc2Oc2ccccc2)c1` [Compound 019], the IC50 was 0.196 nM.
Work on `COc1ccc(OC)c(CN(C(C)=O)c2cc(F)ccc2Oc2ccccc2)c1` [Compound 021] yielded an IC50 of 0.31 nM.
In the case of `COc1ccc(OC)c(CN(C(C)=O)c2ccc(Cl)cc2Oc2ccccc2)c1` [Compound 022], the IC50 is reported as 0.179 nM.
Work on `COc1ccc(OC)c(CN(C(C)=O)c2cc(Cl)ccc2Oc2ccccc2)c1` [Compound 023] yielded an IC50 of 0.424 nM.
With `COc1cc(CN(C(C)=O)c2ccccc2Oc2ccccc2)cc(OC)c1` [Compound 025] the IC50 was 0.26 nM.
`CC(=O)N(Cc1ccccc1O)c1ccccc1Oc1ccccc1` [Compound 027, N-acetyl-N-(2-hydroxybenzyl)-2-phenoxyaniline] showed an IC50 of 3.2 nM.
With `CC(=O)Oc1ccccc1CN(C(C)=O)c1ccccc1Oc1ccccc1` [Compound 028, N-acetyl-N-(2-acetyloxybenzyl)-2-phenoxyaniline] the IC50 was 3.2 nM.
`CC(=O)N(Cc1ccccc1Cl)c1ccccc1Oc1ccccc1` [Compound 029, N-Acetyl-N-(2-chlorobenzyl)-2-phenoxyaniline] showed an IC50 of 0.486 nM.
Compound `CC(=O)N(Cc1cccc(Cl)c1)c1ccccc1Oc1ccccc1` [Compound 030] has an IC50 of 1.96 nM.
In the case of `CC(=O)N(Cc1ccc(Cl)cc1)c1ccccc1Oc1ccccc1` [Compound 031], the IC50 is reported as 1.23 nM.
Work on `CC(=O)N(Cc1ccccc1F)c1ccccc1Oc1ccccc1` [Compound 032] yielded an IC50 of 6.73 nM.
`CC(=O)N(Cc1ccccc1Br)c1ccccc1Oc1ccccc1` [Compound 033] showed an IC50 of 3.51 nM.
For `CSc1ccccc1CN(C(C)=O)c1ccccc1Oc1ccccc1` [Compound 034], the IC50 was 0.179 nM.
`COC(=O)c1ccccc1CN(C(C)=O)c1ccccc1Oc1ccccc1` [Compound 040, N-acetyl-N-(2-methoxycarbonylbenzyl)-2-phenoxyaniline] showed an IC50 of 0.0643 nM.
`CC(=O)N(Cc1ccccc1C=O)c1ccccc1Oc1ccccc1` [Compound 046, N-acetyl-N-(2-formylbenzyl)-2-phenoxyaniline] was tested, and the IC50 was 0.376 nM.
For `CC(=O)c1ccccc1CN(C(C)=O)c1ccccc1Oc1ccccc1` [Compound 047, N-Acetyl-N-(2-acetylbenzyl)-2-phenoxyaniline], the IC50 was 0.265 nM.
Compound `CC(=O)N(Cc1ccccc1C)c1ccccc1Oc1ccccc1` [Compound 049] has an IC50 of 4.23 nM.
Work on `CCCc1ccccc1CN(C(C)=O)c1ccccc1Oc1ccccc1` [Compound 050, N-Acetyl-N-(2-propylbenzyl)-2-phenoxyaniline] yielded an IC50 of 0.215 nM.
`C=Cc1ccccc1CN(C(C)=O)c1ccccc1Oc1ccccc1` [Compound 051] showed an IC50 of 0.196 nM.
`CC(=O)N(Cc1ccccc1[N+](=O)[O-])c1ccccc1Oc1ccccc1` [Compound 052, N-acetyl-N-(2-nitrobenzyl)-2-phenoxyaniline] was tested, and the IC50 was 4.64 nM.
`CC(=O)N(Cc1ccccc1N1CCCC1)c1ccccc1Oc1ccccc1` [Compound 054, N-Acetyl-N-(2-pyrrolidinobenzyl)-2-phenoxyaniline monohydrochloride] was tested, and the IC50 was 1.26 nM.
With `CC(=O)N(Cc1ccc(N(C)C)cc1)c1ccccc1Oc1ccccc1` [Compound 055] the IC50 was 1.83 nM.
With `CC(=O)N(Cc1ccccc1)c1ccccc1Oc1ccccc1` [Compound 056] the IC50 was 2.92 nM.
With `COc1cccnc1CN(C(C)=O)c1ccccc1Oc1ccccc1` [Compound 060] the IC50 was 0.955 nM.
With `COc1ncccc1CN(C(C)=O)c1ccccc1Oc1ccccc1` [Compound 061] the IC50 was 0.498 nM.
With `COc1ccncc1CN(C(C)=O)c1ccccc1Oc1ccccc1` [Compound 062] the IC50 was 1.05 nM.
`CCC(=O)N(Cc1ccccc1OC)c1ccccc1Oc1ccccc1` [Compound 064] gave an IC50 of 0.0933 nM.
In the case of `CCOc1ccccc1CN(C(=O)CC)c1ccc(Cl)cc1Oc1ccccc1` [Compound 066], the IC50 is reported as 0.925 nM.
For `CCCOc1ccccc1CN(C(=O)CC)c1ccc(Cl)cc1Oc1ccccc1` [Compound 067], the IC50 was 1.08 nM.
In the case of `CCCC(=O)N(Cc1ccccc1OC)c1ccccc1Oc1ccccc1` [Compound 071], the IC50 is reported as 1.26 nM.
`COc1ccccc1CN(C(=O)C(C)C)c1ccccc1Oc1ccccc1` [Compound 072] was tested, and the IC50 was 3.51 nM.
`CCCCC(=O)N(Cc1ccccc1OC)c1ccccc1Oc1ccccc1` [Compound 073] was tested, and the IC50 was 1.52 nM.
Work on `CCCCCC(=O)N(Cc1ccccc1OC)c1ccccc1Oc1ccccc1` [Compound 075] yielded an IC50 of 1.83 nM.
With `COc1ccccc1CN(C(=O)C1CC1)c1ccccc1Oc1ccccc1` [Compound 076] the IC50 was 0.955 nM.
Compound `COc1ccccc1CN(C(=O)C1CCC1)c1ccccc1Oc1ccccc1` [Compound 077] has an IC50 of 5.59 nM.
`COc1ccccc1CN(C(=O)c1ccccc1)c1ccccc1Oc1ccccc1` [Compound 079] showed an IC50 of 4.64 nM.
In the case of `COc1ccccc1CN(C(=O)C(F)(F)F)c1ccccc1Oc1ccccc1` [Compound 080], the IC50 is reported as 4.64 nM.
`COc1ccccc1CN(C(=O)CCl)c1ccccc1Oc1ccccc1` [Compound 081, N-chloroacetyl-N-(2-methoxybenzyl)-2-phenoxyaniline] was tested, and the IC50 was 0.343 nM.
`COc1ccccc1CN(C(=O)COC(C)=O)c1ccccc1Oc1ccccc1` [Compound 082, N-acetoxyacetyl-N-(2-methoxybenzyl)-2-phenoxyaniline] was tested, and the IC50 was 8.9 nM.
`COc1ccccc1CN(C(=O)CO)c1ccccc1Oc1ccccc1` [Compound 085, N-Hydroxyacetyl-N-(2-methoxybenzyl)-2-phenoxyaniline] showed an IC50 of 3.85 nM.
`COc1ccccc1CN(C=O)c1ccccc1Oc1ccccc1` [Compound 087] was tested, and the IC50 was 0.572 nM.
`CCOc1ccccc1CN(C=O)c1ccccc1Oc1ccccc1` [Compound 088] showed an IC50 of 0.163 nM.
In the case of `COc1ccccc1CN(C(N)=O)c1ccccc1Oc1ccccc1` [Compound 089, N-Aminocarbonyl-N-(2-methoxybenzyl)-2-phenoxyaniline], the IC50 is reported as 3.51 nM.
For `CNC(=O)N(Cc1ccccc1OC)c1ccccc1Oc1ccccc1` [Compound 090, N-(2-Methoxybenzyl)-N-(N-methylaminocarbonyl)-2-phenoxyaniline], the IC50 was 4.64 nM.
With `CCOc1ccccc1CN(C(=O)NC)c1ccccc1Oc1ccccc1` [Compound 091] the IC50 was 1.83 nM.
`CCCOc1ccccc1CN(C(=O)NC)c1ccccc1Oc1ccccc1` [Compound 092] showed an IC50 of 0.722 nM.
For `CNC(=O)N(Cc1ccccc1OC(C)C)c1ccccc1Oc1ccccc1` [Compound 093], the IC50 was 0.87 nM.
With `CCCCCOc1ccccc1CN(C(=O)NC)c1ccccc1Oc1ccccc1` [Compound 094] the IC50 was 0.925 nM.
`CNC(=O)N(Cc1cc(OC)ccc1OC)c1ccccc1Oc1ccccc1` [Compound 095, N-(2,5-Dimethoxybenzyl)-N-(N-methylaminocarbonyl)-2-phenoxyaniline] was tested, and the IC50 was 3.77 nM.
Work on `COC(=O)N(Cc1ccccc1OC)c1ccccc1Oc1ccccc1` [Compound 098, N-(2-Methoxybenzyl)-N-methoxycarbonyl-2-phenoxyaniline] yielded an IC50 of 0.498 nM.
`CCOC(=O)N(Cc1ccccc1OC)c1ccccc1Oc1ccccc1` [Compound 099] was tested, and the IC50 was 0.87 nM.
`COc1ccccc1CN(C(C)=O)c1ccccc1Oc1ccccc1C` [Compound 100] showed an IC50 of 0.112 nM.
`COc1ccccc1CN(C(C)=O)c1ccccc1Oc1cccc(C)c1` [Compound 101] showed an IC50 of 0.285 nM.
